Assay results reported in ChEMBL document CHEMBL3046256, “Sesquiterpene lactones: antispasmodic principles of the freshwater algae Hydrodictyon reticulatum” (Med Chem Res, 2012).

Legend:
Ileum = test: Ratio IC50 for papaverine to IC50 for compound for antispasmodic activity in rat ileum; assay type: functional
Jejunum = test: Antispasmodic activity in Oryctolagus cuniculus (rabbit) jejunum assessed as K+-induced contraction at 1 mg/ml; assay type: functional

For `CO[C@]1(C)C[C@H](O)[C@@H]2[C@H](OC(=O)[C@H]2C)[C@@H]2[C@H]1CC[C@@]2(C)O`, the “Ratio IC50” value (Ileum) was 0.083 and the inhibition at 1000 µg/mL (Jejunum) was 39.5%.
In the case of `CO[C@]1(C)C[C@H](O)[C@@H]2[C@H](OC(=O)[C@H]2C)[C@@H]2[C@H]1C[C@@H](O)[C@@]2(C)O`, the “Ratio IC50” value (Ileum) is reported as 0.09 and the inhibition at 1000 µg/mL (Jejunum) is reported as 43.4%.
For `C=C1CC[C@H]2O[C@]2(C)CC[C@@H]2[C@@H]1CC2(C)C` [(-)-CARYOPHYLLENE OXIDE], the “Ratio IC50” value (Ileum) was 0.071 and the inhibition at 1000 µg/mL (Jejunum) was 31.6%.
With `COc1ccc(Cc2nccc3cc(OC)c(OC)cc23)cc1OC` [PAPAVERINE] the “Ratio IC50” value (Ileum) was 1.
With `COc1ccc(CCN(C)CCCC(C#N)(c2ccc(OC)c(OC)c2)C(C)C)cc1OC` (stereo not drawn) [VERAPAMIL] the inhibition at 1000 µg/mL (Jejunum) was 67.5%.
